Where two headings read alike, the source gives them in different places.
Assays:
[1] = Steady-state plasma pharmacokinetics (HPLC-MS/MS) in healthy men; oral roflumilast 500 μg once daily, inhaled formoterol 24 μg twice daily; details: for Cmax: Cmax (formoterol)
Protocol: (§1) For Regimen A, subjects received 500 μg oral roflumilast once daily (daily dose: one tablet of roflumilast 500 μg) from the morning of Day 2 to the morning of Day 18. […] For Regimen B, subjects received 24 μg formoterol for oral inhalation delivered by a DPI device (Foradil® P) twice daily, once in the morning and once in the evening from the morning of Day 2 to the evening of Day 18.
Pre-dose blood samples for determination of trough levels were taken on Days 9 and 10 for Regimen A (morning only), and on Days 6 and 7 (morning and evening) for Regimen B. Blood samples (4.5 mL) were collected in heparinised tubes and plasma was obtained by centrifugation at 1550 g for 15 minutes. Plasma samples were stored at -20°C or below for roflumilast, and at -70°C for formoterol. Plasma concentrations of roflumilast and roflumilast N-oxide were determined using high-performance liquid chromatography coupled with tandem mass spectrometry (HPLC-MS/MS). […] Roflumilast and roflumilast N-oxide standard curves were valid up to 20 ng/mL and 40 ng/mL, respectively. Determination of roflumilast and roflumilast N-oxide was performed at Altana Pharma AG, Konstanz, Germany (Nycomed GmbH). Plasma concentrations of formoterol were determined using HPLC-MS/MS. The LLOQ in plasma was 0.4 pg/mL using a sample volume of 1.0 mL. […] Determination of formoterol was performed at pharm-analyt Labor GmbH, Baden, Austria, under the supervision of Altana Pharma AG(Nycomed GmbH).
For roflumilast, roflumilast N-oxide and formoterol, the maximum plasma concentration (Cmax) was derived directly from the plasma concentrations. The AUC from time zero to the time of the last quantifiable concentration, which corresponded to the dosing interval of each analyte (AUC0-τ), was estimated using the linear trapezoidal method. Apparent clearance at steady state (CL/F; calculated by dose/AUCτ) was reported for roflumilast only. […] The calculation of tPDE4i was based on the equation described in Lahu et al..

[2] = test system: healthy subjects; assay: Transthoracic impedance cardiography (ZCG) and systolic time intervals in healthy men; oral roflumilast 500 μg once daily, inhaled formoterol 24 μg twice daily; details: Regimen B
Protocol: as §1
Cardiovascular effects were evaluated non-invasively by means of ECGs (cardiac rhythm, intra-cardiac conduction and ventricular repolarisation), oscillometric blood pressure and transthoracic impedance cardiography (ZCG; systolic time intervals, contractility indices and estimates of stroke volume and cardiac output). Cardiovascular assessments (oscillometric blood pressure, pulse rate, 12-lead ECG, and three-lead ZCG) were recorded before dosing and at 10, 20, 40 and 60 minutes, and at 2, 3, 4, 5, 6, 7 and 8 hours after morning dosing. […] All cardiovascular measurements were carried out after the subjects had been recumbent for at least 10 minutes; they generally stayed in bed from 1 hour before until 8 hours after morning dosing.
Systolic time intervals (STIs) and ZCG estimates of the systolic cardiac pump performance were derived from the simultaneous registration of a one-lead ECG, a phonocardiogram (PCG), and the rate of change of the transthoracic impedance (dZ/dt) to an AC current applied through the thoracic cage (CARDIODYNAGRAPH; Diefenbach GmbH, Wiesbaden, Germany). Tracings were captured and stored digitally during the study and subsequently analysed after the study by displaying the analogue ECG, PCG and ZCG signals on a computer screen. The relevant signal amplitudes and time intervals were delineated manually by operator-steered cursors; measurements were made for at least 10 artefact-free consecutive cardiac cycles. From these tracings, the following variables were derived by direct measurement: RR interval (ms), total electromechanic systole (QS2 [ms]), ventricular ejection time (VET [ms]), baseline transthoracic impedance (Z0 [Ω]), and maximum negative velocity of transthoracic impedance changes during the cardiac cycle (dZ/dtmax [Ω/s]). These variables were analysed for the 10 cycles and their means were used in the calculations of the following variables: heart rate (HR [bpm]), pre-ejection period (PEP [ms] = QS2 - VET), HR-corrected STIs (STIc and STIi according to Weissler et al.), ZCG estimates of stroke volume (SV [mL] according to Kubicek's equation [37] using the equation of Geddes and Sadler for the specific resistance of blood), cardiac output (CO [mL/min]), and total peripheral resistance (TPR [dyn.s.cm^-5]). For the latter variable, the mean blood pressure (MBP [mmHg]) was used as calculated according to Wezler and Böger from the systolic blood pressure (mmHg) and the diastolic blood pressure (mmHg).
ZCG analysis was carried out by a single analyst who was blinded with regard to subject, study regimen, profiling day within regimen, and time during the day.

[3] = test system: healthy subjects; assay: Digital 12-lead electrocardiography (HR, QT, QTc); assay type: in vivo, human
Protocol: Digital 12-lead ECGs were recorded immediately after each ZCG recording. Tracings were analysed off-study by regimen-blinded qualified analysts, using previously reported methodology. For each time point, three cycles were measured with regard to the RR, PQ and QT-intervals [ms]. The means of the three measurements were used for the calculation of HR and HR-corrected QTc intervals, according to Bazett's equation (QTcB = QT/RR^1/2) and Fridericia's equation (QTcF = QT/RR^1/3).

[4] = test system: healthy subjects; assay: Adverse event monitoring; assay type: in vivo, human
Description: Blood and urine samples for conventional clinical laboratory safety tests were obtained at the screening visit, in the morning of each main profiling day, and on Day 19. Adverse events (AEs) were monitored throughout the study.

[5] = cited from earlier work
[6] = test system: human parenchymal and bronchial explants; details: in vitro; cited from earlier work
[7] = Serum glucose concentration on profiling days; details: Regimen B, throughout Day 8 compared with Day 1
Description: (§2) During the main profiling days, blood was sampled at each ZCG time point for the determination of serum glucose and potassium concentrations.

[8] = Serum potassium concentration on profiling days; details: Regimen B, Day 8
Description: as §2

[9] = cited from earlier work; remark: listed apart in the source
[10] = CYP3A4 inhibitors co-administered with roflumilast

COc1ccc(CC(C)NCC(O)c2ccc(O)c(NC=O)c2)cc1 (centres unmarked) [Formoterol]
changes in steady-state pharmacokinetics when the other drug was added ([1]; formoterol added to roflumilast, or roflumilast added to formoterol): no changes | Cmax ([1]; male, human, in vivo, 24 μg, steady state, Regimen B Day 8 (formoterol alone), geometric mean (68% range)): 0.0167 µg/mL | AUC ([1]; male, human, in vivo, AUCτ (formoterol), steady state, Regimen A Day 18 (roflumilast plus formoterol), geometric mean (68% range)): 0.0932 µg·h/mL | Cmax ([1]; male, human, in vivo, steady state, Regimen A Day 18 (roflumilast plus formoterol), geometric mean (68% range)): 0.0187 µg/mL | Cmax ([1]; male, human, in vivo, steady state, Regimen B Day 18 (formoterol plus roflumilast), geometric mean (68% range)): 0.0172 µg/mL | Ctrough (formoterol) ([1]; steady state, Regimen A Day 18 (roflumilast plus formoterol), geometric mean (68% range)): 4.23 (2.43-7.38) μg/L | Ctrough (formoterol) ([1]; steady state, Regimen B Day 8 (formoterol alone), geometric mean (68% range)): 4.12 (3.05-5.57) μg/L | Ctrough (formoterol) ([1]; steady state, Regimen B Day 18 (formoterol plus roflumilast), geometric mean (68% range)): 3.94 (3.13-4.96) μg/L | CO, Day 1-matched post-dose maximum dmax (δ), median ([2]; Day 8 (F)): 2.9 L/min | CO, Day 1-matched post-dose minimum dmin (δ), median ([2]; Day 8 (F)): -0.6 L/min | CO, untransformed post-dose maximum dmax (U), median ([2]; Day 8 (F)): 11.8 L/min | CO, untransformed post-dose minimum dmin (U), median ([2]; Day 8 (F)): 8.2 L/min | CO, untransformed pre-dose morning value, median ([2]; Day 8 (F)): 9.7 L/min | HR, Day 1-matched post-dose maximum dmax (δ), median ([2]; Day 8 (F)): 16 bpm | HR, Day 1-matched post-dose minimum dmin (δ), median ([2]; Day 8 (F)): -2 bpm | HR, untransformed post-dose maximum dmax (U), median ([2]; Day 8 (F)): 72 bpm | HR, untransformed post-dose minimum dmin (U), median ([2]; Day 8 (F)): 62 bpm | HR, untransformed pre-dose morning value, median ([2]; Day 8 (F)): 66 bpm | PEP, Day 1-matched post-dose maximum dmax (δ), median ([2]; Day 8 (F)): 25 ms | PEP, Day 1-matched post-dose minimum dmin (δ), median ([2]; Day 8 (F)): -26 ms | PEP, untransformed post-dose maximum dmax (U), median ([2]; Day 8 (F)): 117 ms | PEP, untransformed post-dose minimum dmin (U), median ([2]; Day 8 (F)): 84 ms | PEP, untransformed pre-dose morning value, median ([2]; Day 8 (F)): 97 ms | QS2, Day 1-matched post-dose maximum dmax (δ), median ([2]; Day 8 (F)): 13 ms | QS2, Day 1-matched post-dose minimum dmin (δ), median ([2]; Day 8 (F)): -47 ms | QS2, untransformed post-dose maximum dmax (U), median ([2]; Day 8 (F)): 440 ms | QS2, untransformed post-dose minimum dmin (U), median ([2]; Day 8 (F)): 408 ms | QS2, untransformed pre-dose morning value, median ([2]; Day 8 (F)): 431 ms | TPR, Day 1-matched post-dose maximum dmax (δ), median ([2]; Day 8 (F)): 61 dyn.s.cm^-5 | TPR, Day 1-matched post-dose minimum dmin (δ), median ([2]; Day 8 (F)): -221 dyn.s.cm^-5 | TPR, untransformed post-dose maximum dmax (U), median ([2]; Day 8 (F)): 882 dyn.s.cm^-5 | TPR, untransformed post-dose minimum dmin (U), median ([2]; Day 8 (F)): 561 dyn.s.cm^-5 | TPR, untransformed pre-dose morning value, median ([2]; Day 8 (F)): 668 dyn.s.cm^-5 | dZ/dt, Day 1-matched post-dose maximum dmax (δ), median ([2]; Day 8 (F)): 0.32 Ω/s | dZ/dt, Day 1-matched post-dose minimum dmin (δ), median ([2]; Day 8 (F)): -0.29 Ω/s | dZ/dt, untransformed post-dose maximum dmax (U), median ([2]; Day 8 (F)): 2.10 Ω/s | dZ/dt, untransformed post-dose minimum dmin (U), median ([2]; Day 8 (F)): 1.64 Ω/s | dZ/dt, untransformed pre-dose morning value, median ([2]; Day 8 (F)): 1.94 Ω/s | CO, dmax (U), point estimate (95% CI) of difference between days ([2]; Day 8-Day 1): 1.7 (0.6 to 2.6) L/min | CO, dmin (U), point estimate (95% CI) of difference between days ([2]; Day 8-Day 1): 0.5 (-0.5 to 1.4) L/min | CO, untransformed pre-dose morning value, point estimate (95% CI) of difference between days ([2]; Day 8-Day 1): 0.7 (-0.9 to 2.0) L/min | HR, dmax (U), point estimate (95% CI) of difference between days ([2]; Day 8-Day 1): 9 (5 to 11) bpm | HR, dmin (U), point estimate (95% CI) of difference between days ([2]; Day 8-Day 1): 7 (3 to 10) bpm | HR, untransformed pre-dose morning value, point estimate (95% CI) of difference between days ([2]; Day 8-Day 1): 5 (2 to 9) bpm | PEP, dmax (U), point estimate (95% CI) of difference between days ([2]; Day 8-Day 1): -4 (-14 to 2) ms | PEP, dmin (U), point estimate (95% CI) of difference between days ([2]; Day 8-Day 1): 0 (-7 to 6) ms | PEP, untransformed pre-dose morning value, point estimate (95% CI) of difference between days ([2]; Day 8-Day 1): -7 (-22 to 7) ms | QS2, dmax (U), point estimate (95% CI) of difference between days ([2]; Day 8-Day 1): -14 (-27 to 4) ms | QS2, dmin (U), point estimate (95% CI) of difference between days ([2]; Day 8-Day 1): -13 (-22 to -3) ms | QS2, untransformed pre-dose morning value, point estimate (95% CI) of difference between days ([2]; Day 8-Day 1): -4 (-18 to 9) ms | TPR, dmax (U), point estimate (95% CI) of difference between days ([2]; Day 8-Day 1): -49 (-160 to 80) dyn.s.cm^-5 | TPR, dmin (U), point estimate (95% CI) of difference between days ([2]; Day 8-Day 1): -96 (-188 to -24) dyn.s.cm^-5 | TPR, untransformed pre-dose morning value, point estimate (95% CI) of difference between days ([2]; Day 8-Day 1): -18 (-198 to 70) dyn.s.cm^-5 | dZ/dt, dmax (U), point estimate (95% CI) of difference between days ([2]; Day 8-Day 1): 0.01 (-0.15 to 0.21) Ω/s | dZ/dt, dmin (U), point estimate (95% CI) of difference between days ([2]; Day 8-Day 1): 0.03 (-0.13 to 0.17) Ω/s | dZ/dt, untransformed pre-dose morning value, point estimate (95% CI) of difference between days ([2]; Day 8-Day 1): 0.06 (-0.07 to 0.19) Ω/s | HR (ECG) ([3]; 12-lead ECG): slight increase | QTc values, uncorrected or corrected using Bazett's or Fridericia's formula ([3]; 12-lead ECG): no clinically relevant changes | duration of the QT interval ([3]; 12-lead ECG): decrease | QT/QTc intervals ([3]; all subjects, all regimens): below 450 ms | number of AEs ([4]; Regimen B, Day 2 to Day 8): no AEs were reported | tremor ([4]; administered alone (Regimens A and B respectively)): not observed | drug-drug interaction with roflumilast ([5]; orally co-administered formoterol, Phase I study, ref unpublished data, Nycomed GmbH, 2002): no apparent drug-drug interaction | inhibitory effect of roflumilast on cytokine and tumour necrosis factor-α production [6]: increased | post-dose serum glucose [7]: slight post-dose increase | pre-dose serum potassium concentration [8]: 4.38 mmol/L

O=C(Nc1c(Cl)c[n+]([O-])cc1Cl)c1ccc(OC(F)F)c(OCC2CC2)c1 [Roflumilast N-oxide]
changes in steady-state pharmacokinetics when the other drug was added ([1]; in vivo): no relevant changes | AUC greater than that of roflumilast [9]: 10 fold | median effective plasma half-life ([9]; repeated dose): 30 h | median time to maximum plasma concentration (tmax) ([9]; repeated dose): 8 h

CCCC1O[C@@H]2C[C@H]3[C@@H]4CCC5=CC(=O)C=C[C@]5(C)[C@H]4[C@@H](O)C[C@]3(C)[C@]2(C(=O)CO)O1 (some centres unmarked) [budesonide]
pharmacokinetic interaction on co-administration with roflumilast ([5]; healthy volunteers): no relevant pharmacokinetic interactions

CCn1cc(C(=O)O)c(=O)c2cc(F)c(N3CCNCC3)nc21 [enoxacin]
increase of tPDE4i ([5]; CYP1A2 or dual CYP3A4/1A2 inhibitor co-administered with roflumilast): 25%

CC[C@H]1OC(=O)[C@H](C)[C@@H](O[C@H]2C[C@@](C)(OC)[C@@H](O)[C@H](C)O2)[C@H](C)[C@@H](O[C@@H]2O[C@H](C)C[C@H](N(C)C)[C@H]2O)[C@](C)(O)C[C@@H](C)C(=O)[C@H](C)[C@@H](O)[C@]1(C)O [erythromycin]
increase of tPDE4i [5, 10]: 8-9%

CC(=O)N1CCN(c2ccc(OCC3COC(Cn4ccnc4)(c4ccc(Cl)cc4Cl)O3)cc2)CC1 (centres unmarked) [ketoconazole]
increase of tPDE4i [5, 10]: 8-9%

Source: paper PMC3127977, “No relevant cardiac, pharmacokinetic or safety interactions between roflumilast and inhaled formoterol in healthy subjects: an open-label, randomised, actively controlled study” (BMC Clinical Pharmacology, 2011)
